From patent US8575187B2, “Combinations of anilinopyrimidines and pyrion compounds” (Janssen Pharmaceutica, NV, priority 2008, dated 2013)

What was measured:
Type in all cases: cell-based
[1] = test system: Chaetomium globosum ATCC6205; assay: Poison Plate Assay, fungi on Glucose Agar; settings: % (I-a) + % (II-g), ppm total active ingredient, growth evaluated after two weeks, 27° C.
Method: (§1) Experiment 1: Poison Plate Assay
(§2) • pyrimethanil (I-a) • cyprodinil (I-b) • mepanipyrim (I-c) Name of Component (II): • 1-hydroxy-2-pyridinone (II-a) • ciclopirox (II-b) • ciclopirox olamine (II-c) • piroctone (II-d) • piroctone olamine (II-e) • rilopirox (II-f) • pyrion disulfide (II-g) • sodium pyrithione (II-h) • zinc pyrithione (II-i) Test Models: • Fungi: to each well of a 24-well microtiter plate, 1000 μl of Glucose Agar (GA: 10 g glucose, 1.5 g K2HPO4, 2 g KH2PO4, 1 g (NH4)2SO4, 0.5 g MgSO4 and 12.5 g agar in 1 liter deionised water) containing the appropriate combination of the test compounds in one of the concentrations of a dose series is added. The nutrient medium is inoculated with the test fungi by adding a spore/mycelium suspension (10 μl) or a small piece of agar from the margin of an actively growing colony and incubated under dark at 27° C. with 70% relative humidity. […] The nutrient medium is inoculated by adding 10 μl of an actively growing liquid culture of the test bacteria in tryptose broth (without agar), and incubated under dark at 27° C. with 70% relative humidity. The growth is evaluated after five days. Concentrations: • Synergy experiment with hydroxypyridone: • MIC values for single compounds were collected from previous screening experiments. These MIC values were used as a guide in determining of the most suitable test dose ranges. For the combination experiments, two overlapping dose series were used, in order to maximise the chance of the MIC values falling within the test concentration range for all combinations: • Series 1: 50.00-37.50-28.13-21.09-15.82-11.87-8.90-6.67-5.01-3.75-2.82-2.11 ppm • Series 2: 25.00-18.75-14.06-10.55-7.91-5.93-4.45-3.34-2.50-1.88-1.41-1.06 ppm • Synergy experiments with bispyrithione and sodium pyrithione: 10.00-7.50-5.63-4.22-3.16-2.37-1.78-1.33-1.00-0.75-0.56-0.42 ppm
(§3) (2000) “Measuring synergy” cosmetics & Toiletries 115(11): 59-62; and Lada, A., A. N. Petrocci, H. A. Green, and J. J. Merianos (1977) “Antimicrobial composition” U.S. Pat. No. 4,061,750, 3 pp.): […]

[2] = test system: Staphylococcus aureus (g+) LMG 8064; assay: Poison Plate Assay, bacteria on Tryptose Agar; settings: ppm total active ingredient, growth evaluated after five days, 27° C.
Method: as §1, §2, §3

[3] = test system: Ulocladium atrum IMI214699a; assay: Poison Plate Assay, fungi on Glucose Agar; settings: % (I-a) + % (II-h), ppm total active ingredient, growth evaluated after two weeks, 27° C.
Method: as §1, §2, §3

## Cc1cc(C)nc(Nc2ccccc2)n1 [(I-a) + (II-g) 100 + 0, pyrimethanil]
[1]
  MIC-values (minimum inhibitory concentration) in ppm: 1.78 ppm
[2]; % (I-a) + % (II-g)
  MIC-values (minimum inhibitory concentration) in ppm: 3.16 ppm

## [O-][n+]1ccccc1SSc1cccc[n+]1[O-] [(I-a) + (II-g) 0 + 100, pyrion disulfide]
[1]; ATCC6205, 336 h, read-out: MIC-values (minimum inhibitory concentration) in ppm
  MIC: 40 µg/mL
[2]; LMG8064, 120 h, % (I-a) + % (II-g), read-out: MIC-values (minimum inhibitory concentration) in ppm
  MIC: 213 µg/mL

## Cc1cc(C)nc(Nc2ccccc2)n1 [(I-a) + (II-h) 100 + 0, pyrimethanil]
[3]
  MIC-values (minimum inhibitory concentration) in ppm: 3.16 ppm
[2]; % (I-a) + % (II-h)
  MIC-values (minimum inhibitory concentration) in ppm: 4.22 ppm
